The values that follow come from patent US20240156790A1, “COMPOUNDS, COMPOSITIONS, AND METHODS FOR MODULATING FERROPTOSIS AND TREATING EXCITOTOXIC DISORDERS” (THE TRUSTEES OF COLUMBIA UNIVERSITY IN THE CITY OF NEW YORK, priority 2018, published 2024).

The test system of one assay is HT-1080 cells. In words: Rescue activity of Fer-1 analogs: inhibition of erastin-, IKE- or RSL3-induced death (Alamar Blue viability). In kind it is cell-based. As to conditions: Homo sapiens. On the procedure: HT-1080 cells are cultured in DMEM containing 10% fetal bovine serum, 1% supplemented non-essential amino acids and 1% pen/strep mixture (Gibco) and maintained in a humidified environment at 37° C. with 5% CO2 in a tissue culture incubator. 1,000 HT-1080 cells are seeded per well in duplicate 384-well plates (Corning) using a BioMek FX liquid handling robot (Beckman Coulter). The next day, the medium is replaced with 36 μL of medium containing 10 μM erastin with 4 μL of medium containing a dilution series (previously prepared) of DMSO, Fer-1 (positive control) or Fer-1 analogs. […] Cells are incubated a further 6 hours and then the Alamar Blue fluorescence intensity recorded using a Victor 3 platereader (PerkinElmer)(ex/em 530/590). All experiments are performed at least twice and the background (no cells)-subtracted Alamar Blue values for each combination are averaged between replicates. The same procedure was repeated by replacing erastin (10 μM) with IKE (3 μM) or RSL3 (0.2 μM).
(The colour change of resazurin is a common sign of viable cells or microbes.)

For assay [1], the system named is N27 rat dopaminergic cells. The assay is described as follows: Suppression of ferroptosis induced by RSL3 in N27 cells (CellTiter-Glo viability). To be noted: for IC50: Rattus norvegicus, read-out: IC50; for ability to suppress ferroptosis, in words: RSL3 20 nM, 24 hours of incubation. In kind it is cell-based. For orientation: In ATP-based viability assays light output follows the ATP content of the culture.

Setting [2] is: HT-1080, ^a 50% viability, HT-1080 cells treated with 10 μM erastin.
[3] abbreviates: HT-1080, ^b 50% viability, HT-1080 treated with 3 μM IKE.
The mark [4] stands for this setting: HT-1080, ^c 50% viability, HT-1080 treated with 0.2 μM RSL3.
Setting [5] is: N27, 24 h, Table 13, 20 nM RSL3, treated for 24 hours^d.
[6] abbreviates: N27, 48 h, Table 13, 20 nM RSL3, treated for 48 hours^e.
[7] abbreviates: N27, 24 h, Table 3, ^d 24 hr treatment, 1,000 cells/well seeded.

“Also recorded” adds a separate entry of the source. Read-outs that look alike come from different tables or passages of the source.

What is called EC50 is the concentration at which the effect is half-maximal. Take `CC(C)(C)OC(=O)c1cnc(NC2CCCCC2)c(NC2CCCCC2)c1` [CFI-101]: the 50% effective concentration (EC50) with HT-1080 cells (setting [2]) came to 354 nM; with HT-1080 cells (setting [3]), 171 nM; with HT-1080 cells (setting [4]), 163 nM.
With `CC(C)(C)OC(=O)c1cnc(NC23CC4CC(CC(C4)C2)C3)c(N)c1` [YZ1117, tert-butyl 6-(((3s,5s,7s)-adamantan-1-yl)amino)-5-aminonicotinate], the concentration giving a half-maximal response (EC50) with HT-1080 cells (setting [2]) came out at 85 nM; in the assay on HT-1080 cells (setting [3]), 68.4 nM; with HT-1080 cells (setting [4]), 39.1 nM.
As for `CCOC(=O)c1cnc(NC2CCCCC2)c(N)c1` [YZ1108, ethyl 5-amino-6-(cyclohexylamino)nicotinate], the EC50 in the assay on HT-1080 cells (setting [2]) is 315 nM; in the assay with HT-1080 cells (setting [3]), 639 nM; in the assay on HT-1080 cells (setting [4]) it was 1040 nM.
For orientation: IC50 means the concentration that inhibits the measured activity by half. On to `COc1ccc(N)c(NC(C)C)n1` [TH-3-83-2, N2-isopropyl-6-methoxypyridine-2,3-diamine], for which the half-inhibitory concentration (IC50) in assay [1] (setting [5]) is 19.5 nM; in assay [1] (setting [6]), 33.6 nM.
For `Cc1noc(-c2ccc(NC3CCCCC3)c(NC(C)C)c2)n1` [TH-1-45-2, N1-cyclohexyl-N2-isopropyl-4-(3-methyl-1,2,4-oxadiazol-5-yl)benzene-1,2-diamine], the EC50 amounted to 22.3 nM in the assay with HT-1080 cells (setting [2]), 16.2 nM with HT-1080 cells (setting [3]) and 4.2 nM in the assay on HT-1080 cells (setting [4]).
On the same counts, the results for `Cc1noc(-c2ccc(NC3CCCCC3)c(NCc3ccncc3)c2)n1` [TH-1-53-3, N1-cyclohexyl-4-(3-methyl-1,2,4-oxadiazol-5-yl)-N2-(pyridin-4-ylmethyl)benzene-1,2-diamine] are 63.8 nM, 63 nM and 31.5 nM.
As to `CCN(CC)c1ncc(-c2nc(C)no2)cc1[N+](=O)[O-]` [TH-4-46-2, N,N-diethyl-5-(3-methyl-1,2,4-oxadiazol-5-yl)-3-nitropyridin-2-amine], the “ability to suppress ferroptosis, in words” value (shortened to “ability”) in assay [1] is recorded as “unable to suppress ferroptosis”.
Take `Cc1noc(-c2cnc(NC3CCCCC3)c(NC3CCC3)c2)n1` [TH-4-55-1, N^3-cyclobutyl-N^2-cyclohexyl-5-(3-methyl-1,2,4-oxadiazol-5-yl)pyridine-2,3-diamine]: the “potency relative to fer-1, in words” value in assay [1] (20 nM RSL3) is reported as “more potent than fer-1”. The IC50 in assay [1] (setting [7]) and in assay [1] (setting [5]) was 2.2 nM throughout.
Take `CCC(CC)Nc1cc(-c2nc(C)no2)cnc1NC1CCCC1` [TH-4-68, N^2-cyclopentyl-5-(3-methyl-1,2,4-oxadiazol-5-yl)-N^3-(pentan-3-yl)pyridine-2,3-diamine]: the IC50 in assay [1] (setting [7]) and in assay [1] (setting [5]) was 4 nM throughout.
Consider `Cc1noc(-c2cc(NC3CCCC3)cnc2NC2CCCCC2)n1` [TH-4-53-2, N^2-cyclohexyl-N^5-cyclopentyl-3-(3-methyl-1,2,4-oxadiazol-5-yl)pyridine-2,5-diamine], for which, in assay [1] (20 nM RSL3), the “potency relative to fer-1, in words” value is reported as “more potent than fer-1; also recorded: the most potent of the analogs tested”. Also, the IC50 in assay [1] (setting [5]) is 1.8 nM.
As to `Cc1noc(-c2ccc(NC3CCCCC3)c(NCc3ccccc3)c2)n1` [TH-1-53-2], the EC50 was found to be 44.5 nM in the assay with HT-1080 cells (setting [2]), 40.2 nM with HT-1080 cells (setting [3]) and 9.4 nM in the assay on HT-1080 cells (setting [4]).
Taken in the same sequence, the figures for `Cc1noc(-c2ccc(NC3CCCCC3)c(NC3CCCC3)c2)n1` [TH-1-45-1, N1-cyclohexyl-N2-cyclopentyl-4-(3-methyl-1,2,4-oxadiazol-5-yl)benzene-1,2-diamine] were 33.8 nM, 17.3 nM and 5.1 nM.
Turning to `COc1ccc(NC(C)C)c(NC(C)C)n1` [TH-3-95-2-R1, N2,N3-diisopropyl-6-methoxypyridine-2,3-diamine], the half-maximal inhibitory concentration (IC50) in assay [1] (setting [5]) came to 35.7 nM; in assay [1] (setting [6]), 0.22 nM.
In the case of `C=C/C(=C\C(F)=C\COC(C)(C)C)NC12CC3CC(CC(C3)C1)C2` [CFI-A78], the results for the EC50 in the assay with HT-1080 cells (setting [3]) and in the assay on HT-1080 cells (setting [4]) were 26 nM and 18 nM, respectively.
Consider `Cc1noc(-c2cnc(NC3CCCC3)c(NC3CCCCC3)c2)n1` [TH-4-66, N^3-cyclohexyl-N^2-cyclopentyl-5-(3-methyl-1,2,4-oxadiazol-5-yl)pyridine-2,3-diamine], for which the “potency relative to fer-1, in words” value in assay [1] (20 nM RSL3) is “more potent than fer-1”. The IC50 in assay [1] (setting [7]) and in assay [1] (setting [5]) was 3.1 nM in each case.
In the case of `CC(C)(C)OC(=O)c1cnc(NC2CCCCC2)c(N)c1` [YZ1113, tert-butyl 5-amino-6-(cyclohexylamino)nicotinate], the EC50 turned out to be 338 nM in the assay with HT-1080 cells (setting [2]), 312 nM in the assay with HT-1080 cells (setting [3]) and 156 nM in the assay on HT-1080 cells (setting [4]).
Turning to `Cc1noc(-c2cnc(NC3CCCCC3)c([N+](=O)[O-])c2)n1` [TH-4-50-2, N-cyclohexyl-5-(3-methyl-1,2,4-oxadiazol-5-yl)-3-nitropyridin-2-amine], in assay [1], the “ability” value is “unable to suppress ferroptosis”.
Consider `CCC(CC)Nc1cnc(NC2CCCCC2)c(-c2nc(C)no2)c1` [TH-4-53-1, N^2-cyclohexyl-3-(3-methyl-1,2,4-oxadiazol-5-yl)-N^5-(pentan-3-yl)pyridine-2,5-diamine], for which, in assay [1] (setting [5]), the IC50 came out at 32.7 nM.
Turning to `Cc1noc(-c2cnc(NC3CCCCC3)c(NC3CCCC3)c2)n1` [TH-4-16-1, N^2-cyclohexyl-N^3-cyclopentyl-5-(3-methyl-1,2,4-oxadiazol-5-yl)pyridine-2,3-diamine], the concentration for half-maximal inhibition (IC50) was 5.1 nM in assay [1] (setting [7]); 5.1 nM in assay [1] (setting [5]); 8.2 nM in assay [1] (N27, 48 h, Table 3, ^e 48 hr treatment, 1,000 cells/well seeded); 8.2 nM in assay [1] (setting [6]).
For the compound `Cc1noc(-c2cnc(NC3CCCC3)c([N+](=O)[O-])c2)n1` [TH-4-58-2, N-cyclopentyl-5-(3-methyl-1,2,4-oxadiazol-5-yl)-3-nitropyridin-2-amine], the “ability” value in assay [1] was “unable to suppress ferroptosis”.
Consider `Cc1noc(-c2cc(N(C(C)C)C(C)C)cnc2NC2CCCCC2)n1` [TH-3-86-R2, N^2-cyclohexyl-N^5,N^5-diisopropyl-3-(3-methyl-1,2,4-oxadiazol-5-yl)pyridine-2,5-diamine], for which the IC50 in assay [1] (setting [6]) stood at 1040 nM; in assay [1] (N27, text, 20 nM RSL3), 1000 nM.
As to `CCOC(=O)c1cnc(NC2CCCCC2)c(NCc2ccccc2)c1` [YZ1109, ethyl 5-(benzylamino)-6-(cyclohexylamino)nicotinate], the EC50 with HT-1080 cells (setting [2]) came to 317 nM; in the assay on HT-1080 cells (setting [3]), 166 nM; with HT-1080 cells (setting [4]), 115 nM.
In the case of `COc1ccc(NC2CCCCC2)c(NC(C)C)n1` [TH-3-95-1-r1, N3-cyclohexyl-N2-isopropyl-6-methoxypyridine-2,3-diamine], the IC50 came to 30.5 nM in assay [1] (setting [5]) and 22.4 nM in assay [1] (setting [6]).
As to `CCC(CC)Nc1cc(-c2nc(C)no2)ccc1NC1CCCCC1` [TH-1-45-3, N1-cyclohexyl-4-(3-methyl-1,2,4-oxadiazol-5-yl)-N2-(pentan-3-yl)benzene-1,2-diamine], the values for the EC50 with HT-1080 cells (setting [2]), in the assay on HT-1080 cells (setting [3]) and with HT-1080 cells (setting [4]) were 37.8 nM, 26.9 nM and 6.6 nM, respectively.
With `CC(C)(C)OC(=O)c1cnc(NC23CC4CC(CC(C4)C2)C3)c(NC2CCCCC2)c1` [YZ1118, tert-butyl 6-(((3s,5s,7s)-adamantan-1-yl)amino)-5-(cyclohexylamino)nicotinate], the EC50 with HT-1080 cells (setting [3]) was 40.1 nM; in the assay on HT-1080 cells (setting [4]), 37.3 nM.
Turning to `Cc1noc(-c2cnc(NC3CCCC3)c(NC3CCC3)c2)n1` [TH-4-62, N^3-cyclobutyl-N^2-cyclopentyl-5-(3-methyl-1,2,4-oxadiazol-5-yl)pyridine-2,3-diamine], the concentration for half-maximal inhibition (IC50) in assay [1] (setting [7]) and in assay [1] (setting [5]) was 6.9 nM throughout.
